Measured values published in US20250114374A1, “BCL-2 INHIBITORS” (Newave Pharmaceutical Inc., priority 2021, published 2025).

system: RS4; 11 with G101V mutation; experiment: In vitro anti-proliferation assay (ATPlite luminescence) in BCL-2-dependent ALL cell line RS4;11 with G101V mutation; type: cell-based; conditions: Homo sapiens, RS4-11, 72 h; read-out: RS411-G101V IC50
Summary of the method: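 IC50 came from luminescent ATP quantification (ATPlite) following cell lysis. Compound dose ranges were applied for roughly 72 h to about 1×10^4 G101V-mutant RS4;11 cells per well, in 10% FBS medium.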

| Structure (SMILES) | IC50 [nM] |
| --- | --- |
| COc1cc([C@H](C)N2CCN(C3CC4(CCN(c5ccc(C(=O)NS(=O)(=O)c6cc7c(c([N+](=O)[O-])c6)N[C@H](C6CCOCC6)CO7)c(N6c7cc8cc[nH]c8nc7O[C@H]7COCC[C@@H]76)c5)CC4)C3)[C@H](c3ccccc3C)C2)cnc1N1CCOC[C@@H]1C [Example 193, 4-(2-((R)-4-((S)-1-(5-methoxy-6-((S)-3-methylmorpholino)pyridin-3-yl)ethyl)-2-(o-tolyl)piperazin-1-yl)-7-azaspiro[3.5]nonan-7-yl)-N-(((R)-5-nitro-3-(tetrahydro-2H-pyran-4-yl)-3,4-dihydro-2H-benzo[b][1,4]oxazin-7-yl)sulfonyl)-2-((5aS,9aR)-6,7,9,9a-tetrahydro-1H-pyrano[3,4-b]pyrrolo[3′,2′:5,6]pyrido[3,2-e][1,4]oxazin-5(5aH)-yl)benzamide] | 73.3 |
| COc1cc([C@@H](C)N2CCN(C3CC4(CCN(c5ccc(C(=O)NS(=O)(=O)c6cc7c(c([N+](=O)[O-])c6)N[C@H](C6CCOCC6)CO7)c(N6c7cc8cc[nH]c8nc7O[C@H]7COCC[C@@H]76)c5)CC4)C3)[C@H](c3ccccc3C)C2)cnc1N1CCOC[C@@H]1C [Example 194, 4-(2-((R)-4-((R)-1-(5-methoxy-6-((S)-3-methylmorpholino)pyridin-3-yl)ethyl)-2-(o-tolyl)piperazin-1-yl)-7-azaspiro[3.5]nonan-7-yl)-N-(((R)-5-nitro-3-(tetrahydro-2H-pyran-4-yl)-3,4-dihydro-2H-benzo[b][1,4]oxazin-7-yl)sulfonyl)-2-((5aS,9aR)-6,7,9,9a-tetrahydro-1H-pyrano[3,4-b]pyrrolo[3′,2′:5,6]pyrido[3,2-e][1,4]oxazin-5(5aH)-yl)benzamide] | 2.53 |

Other lines, results leading:

| IC50 [nM] | Structure (SMILES) |
| --- | --- |
| 11.1 | Cc1ccccc1[C@@H]1CN(Cc2cnc(N3CCOC[C@@H]3C)c(OC(C)C)c2)CCN1C1CC2(CCN(c3ccc(C(=O)NS(=O)(=O)c4cc5c(c([N+](=O)[O-])c4)N[C@H](C4CCOCC4)CO5)c(N4c5cc6cc[nH]c6nc5O[C@H]5COCC[C@@H]54)c3)CC2)C1 [Example 190, 4-(2-((R)-4-((5-isopropoxy-6-((S)-3-methylmorpholino)pyridin-3-yl)methyl)-2-(o-tolyl)piperazin-1-yl)-7-azaspiro[3.5]nonan-7-yl)-N-(((R)-5-nitro-3-(tetrahydro-2H-pyran-4-yl)-3,4-dihydro-2H-benzo[b][1,4]oxazin-7-yl)sulfonyl)-2-((5aS,9aR)-6,7,9,9a-tetrahydro-1H-pyrano[3,4-b]pyrrolo[3′,2′:5,6]pyrido[3,2-e][1,4]oxazin-5(5aH)-yl)benzamide] |
| 328 | Cc1ccccc1[C@@H]1CN([C@H]2CCOc3c(F)cc(F)cc32)CCN1C1CC2(CCN(c3ccc(C(=O)NS(=O)(=O)c4cc5c(c([N+](=O)[O-])c4)N[C@H](C4CCOCC4)CO5)c(N4c5cc6cc[nH]c6nc5O[C@H]5COCC[C@@H]54)c3)CC2)C1 [Example 197, 4-(2-((R)-4-((S)-6,8-difluorochroman-4-yl)-2-(o-tolyl)piperazin-1-yl)-7-azaspiro[3.5]nonan-7-yl)-N-(((R)-5-nitro-3-(tetrahydro-2H-pyran-4-yl)-3,4-dihydro-2H-benzo[b][1,4]oxazin-7-yl)sulfonyl)-2-((5aS,9aR)-6,7,9,9a-tetrahydro-1H-pyrano[3,4-b]pyrrolo[3′,2′:5,6]pyrido[3,2-e][1,4]oxazin-5(5aH)-yl)benzamide] |
| 145 | Cc1ccccc1[C@@H]1CN([C@@H]2CCOc3c(F)cc(F)cc32)CCN1C1CC2(CCN(c3ccc(C(=O)NS(=O)(=O)c4cc5c(c([N+](=O)[O-])c4)N[C@H](C4CCOCC4)CO5)c(N4c5cc6cc[nH]c6nc5O[C@H]5COCC[C@@H]54)c3)CC2)C1 [Example 198, 4-(2-((R)-4-((R)-6,8-difluorochroman-4-yl)-2-(o-tolyl)piperazin-1-yl)-7-azaspiro[3.5]nonan-7-yl)-N-(((R)-5-nitro-3-(tetrahydro-2H-pyran-4-yl)-3,4-dihydro-2H-benzo[b][1,4]oxazin-7-yl)sulfonyl)-2-((5aS,9aR)-6,7,9,9a-tetrahydro-1H-pyrano[3,4-b]pyrrolo[3′,2′:5,6]pyrido[3,2-e][1,4]oxazin-5(5aH)-yl)benzamide] |

same assay, conditions: cellular anti-proliferative IC50, about 72 hours, medium with 10% FBS, ATPlite; read-out: RS411-G101V IC50

| Structure (SMILES) | IC50 [nM] |
| --- | --- |
| Cc1ccccc1[C@@H]1CN(Cc2cnc(N3CCOC[C@@H]3C)c(F)c2)CCN1C1CC2(CCN(c3ccc(C(=O)NS(=O)(=O)c4cc5c(c([N+](=O)[O-])c4)N[C@H](C4CCOCC4)CO5)c(N4c5cc6cc[nH]c6nc5O[C@H]5COCC[C@@H]54)c3)CC2)C1 [Example 189, 2-[(3R,8S)-2,5-dioxa-9,15,17-triazatetracyclo[8.7.0.0^{3,8}.0^{12,16}]heptadeca-1(10),11,13,16-tetraen-9-yl]-4-{2-[(2R)-4-({5-fluoro-6-[(3S)-3-methylmorpholin-4-yl]pyridin-3-yl}methyl)-2-(2-methylphenyl)piperazin-1-yl]-7-azaspiro[3.5]nonan-7-yl}-N-[(3R)-5-nitro-3-(oxan-4-yl)-3,4-dihydro-2H-1,4-benzoxazin-7-ylsulfonyl]benzamide] | 36.8 |
| Cc1cc2c(CN3CCN(C4CC5(CCN(c6ccc(C(=O)NS(=O)(=O)c7cc8c(c([N+](=O)[O-])c7)N[C@H](C7CCOCC7)CO8)c(N7c8cc9cc[nH]c9nc8O[C@H]8COCC[C@@H]87)c6)CC5)C4)[C@H](c4ccccc4C)C3)cnc(N3CCOC[C@@H]3C)c2o1 [Example 191, 2-[(3R,8S)-2,5-dioxa-9,15,17-triazatetracyclo[8.7.0.0^{3,8}.0^{12,16}]heptadeca-1(10),11,13,16-tetraen-9-yl]-4-{2-[(2R)-4-({2-methyl-7-[(3S)-3-methylmorpholin-4-yl]furo[2,3-c]pyridin-4-yl}methyl)-2-(2-methylphenyl)piperazin-1-yl]-7-azaspiro[3.5]nonan-7-yl}-N-[(3R)-5-nitro-3-(oxan-4-yl)-3,4-dihydro-2H-1,4-benzoxazin-7-ylsulfonyl]benzamide] | 14.2 |
| Cc1ccccc1[C@@H]1CN(Cc2cnc(N3CCOCC3)c3c2C(C)(C)CCO3)CCN1C1CC2(CCN(c3ccc(C(=O)NS(=O)(=O)c4cc5c(c([N+](=O)[O-])c4)N[C@H](C4CCOCC4)CO5)c(N4c5cc6cc[nH]c6nc5O[C@H]5COCC[C@@H]54)c3)CC2)C1 [Example 192, 4-{2-[(2R)-4-{[4,4-dimethyl-8-(morpholin-4-yl)-2H,3H-pyrano[2,3-c]pyridin-5-yl]methyl}-2-(2-methylphenyl)piperazin-1-yl]-7-azaspiro[3.5]nonan-7-yl}-2-[(3R,8S)-2,5-dioxa-9,15,17-triazatetracyclo[8.7.0.0^{3,8}.0^{12,16}]heptadeca-1(10),11,13,16-tetraen-9-yl]-N-[(3R)-5-nitro-3-(oxan-4-yl)-3,4-dihydro-2H-1,4-benzoxazin-7-ylsulfonyl]benzamide] | 2.41 |
| Cc1ccccc1[C@@H]1CN([C@@H]2CCOc3c2ccc(F)c3F)CCN1C1CC2(CCN(c3ccc(C(=O)NS(=O)(=O)c4cc5c(c([N+](=O)[O-])c4)N[C@H](C4CCOCC4)CO5)c(N4c5cc6cc[nH]c6nc5O[C@H]5COCC[C@@H]54)c3)CC2)C1 [Example 195, 4-{2-[(2R)-4-[(4R)-7,8-difluoro-3,4-dihydro-2H-1-benzopyran-4-yl]-2-(2-methylphenyl)piperazin-1-yl]-7-azaspiro[3.5]nonan-7-yl}-2-[(3R,8S)-2,5-dioxa-9,15,17-triazatetracyclo[8.7.0.0^{3,8}.0^{12,16}]heptadeca-1(10),11,13,16-tetraen-9-yl]-N-[(3R)-5-nitro-3-(oxan-4-yl)-3,4-dihydro-2H-1,4-benzoxazin-7-ylsulfonyl]benzamide] | 94.5 |
| Cc1ccccc1[C@@H]1CN([C@H]2CCOc3c2ccc(F)c3F)CCN1C1CC2(CCN(c3ccc(C(=O)NS(=O)(=O)c4cc5c(c([N+](=O)[O-])c4)N[C@H](C4CCOCC4)CO5)c(N4c5cc6cc[nH]c6nc5O[C@H]5COCC[C@@H]54)c3)CC2)C1 [Example 196, 4-{2-[(2R)-4-[(4S)-7,8-difluoro-3,4-dihydro-2H-1-benzopyran-4-yl]-2-(2-methylphenyl)piperazin-1-yl]-7-azaspiro[3.5]nonan-7-yl}-2-[(3R,8S)-2,5-dioxa-9,15,17-triazatetracyclo[8.7.0.0^{3,8}.0^{12,16}]heptadeca-1(10),11,13,16-tetraen-9-yl]-N-[(3R)-5-nitro-3-(oxan-4-yl)-3,4-dihydro-2H-1,4-benzoxazin-7-ylsulfonyl]benzamide] | 92.3 |
| Cc1ccccc1[C@@H]1CN(C2CCC(C)(O)CC2)CCN1C1CC2(CCN(c3ccc(C(=O)NS(=O)(=O)c4cc5c(c([N+](=O)[O-])c4)N[C@H](C4CCOCC4)CO5)c(N4c5cc6cc[nH]c6nc5O[C@H]5COCC[C@@H]54)c3)CC2)C1 (stereo partly drawn) [Example 199, 4-(2-((R)-4-((1r,4R)-4-hydroxy-4-methylcyclohexyl)-2-(o-tolyl)piperazin-1-yl)-7-azaspiro[3.5]nonan-7-yl)-N-(((R)-5-nitro-3-(tetrahydro-2H-pyran-4-yl)-3,4-dihydro-2H-benzo[b][1,4]oxazin-7-yl)sulfonyl)-2-((5aS,9aR)-6,7,9,9a-tetrahydro-1H-pyrano[3,4-b]pyrrolo[3′,2′:5,6]pyrido[3,2-e][1,4]oxazin-5(5aH)-yl)benzamide] | 50.4 |
| Cc1ccccc1[C@@H]1CN(C2CCC(C)(O)CC2)CCN1C1CC2(CCN(c3ccc(C(=O)NS(=O)(=O)c4cc5c(c([N+](=O)[O-])c4)N[C@H](C4CCOCC4)CO5)c(N4c5cc6cc[nH]c6nc5O[C@H]5COCC[C@@H]54)c3)CC2)C1 (stereo partly drawn) [Example 200, 4-(2-((R)-4-((1s,4S)-4-hydroxy-4-methylcyclohexyl)-2-(o-tolyl)piperazin-1-yl)-7-azaspiro[3.5]nonan-7-yl)-N-(((R)-5-nitro-3-(tetrahydro-2H-pyran-4-yl)-3,4-dihydro-2H-benzo[b][1,4]oxazin-7-yl)sulfonyl)-2-((5aS,9aR)-6,7,9,9a-tetrahydro-1H-pyrano[3,4-b]pyrrolo[3′,2′:5,6]pyrido[3,2-e][1,4]oxazin-5(5aH)-yl)benzamide] | 82.6 |
